# Data: patent publication US20230105693A1, “ANTIMICROBIAL COMPOSITIONS” (Firmenich SA, priority 2020, published 2023)
# Where two headings read alike, the source gives them in different places.
# Tests used:
# [1] = Equivalent alkane carbon number (EACN) in model microemulsion system; assay type: physicochemical; details: C10E5/water/isopropyl myristate model system, 3% wt perfume ingredient
# Experimental: EACN values provide information on polarity and surface activity of apolar ingredients. Tchakalova and Fieber (J. of Surfactants and Detergents, 2012, 15(2):167-177) classified perfume ingredients based on values of EACNmix, the EACN of a mixture consisting of a test perfume ingredient and a reference oil (isopropyl myristate). The same model system and method were used to measure the EACN values of perfume ingredients with antimicrobial activities. Different perfume ingredients were added to the model microemulsion system shown in Table 1, in which the nonionic pentaethylene glycol mono n-decyl ether (C10E5) was used as surfactant. Phase transition temperatures of the system from Winsor I to Winsor III, and from Winsor III to Winsor II were determined using a water bath. Alkanes with different alkane carbon numbers (octane, decane, dodecane and hexadecane) were used to establish a linear correlation curve between EACN and the PIT, which is the average of the transitions from Winsor I to Winsor III, and from Winsor III to Winsor II, respectively. EACNmix was then calculated based on the linear relationship and the measured PIT for systems containing different perfume ingredients. The EACN of the pure perfume ingredient was calculated based on the molar ratio of the tested PRMs in the oil phase using following equation: […]
# wherein n and nref are the molar fractions of tested perfume ingredient and the reference ingredient (i.e., isopropyl myristate) in the oil phase, respectively.
# [2] = tested on: Escherichia coli ATCC 10536; experiment: Robotic BCT test of perfume ingredients in model surfactant bases; assay type: cell-based; details: for log reduction at 0.5 %: Escherichia coli, ATCC10536, 45 s; for Log reduction (Log CFU/mL) Base 3: Base 3: SLES 1.5%, coco-glucoside 0.75%; for Log reduction (Log CFU/mL) Base 4: Base 4: SLES 2.25%, sodium xylene sulfonate 3%
# Experimental: The surfactant bases tested included 1) sodium lauryl ether sulfate (SLES) and cocamidopropyl betaine (CAPB) at 3:1 mass ratios; 2) SLES, CAPB and coco-glucoside at 2:1:1 mass ratios. Test samples were prepared by mixing perfume ingredients with the surfactant bases and vigorously stirred for 24 hrs. Concentration of perfume ingredients in the bases was 0.5% wt. Samples with transparent appearance were selected for antimicrobial testing.
# Antimicrobial efficacy was tested against a representative Gram-negative bacterial strain, Escherichia coli ATCC 10536, using robotic bacteria contact time (BCT) test based on European standard EN-1276 and EP2787827(B1).
# Preparation of screening plate and dilution plate: Aliquots (270 µl) of compositions were dispensed into the wells of a 96-well microtiter plate (MTP) along two columns (B1-H1, and B7-H7), and 270 µl of MilliQ water was added to well A1 and A7 as the control samples. This MTP was labelled as the “Screening plate”. In another MTP, labelled as the “Dilution plate”, 270 µL of Dey-Engley (D/E) neutralizing solution was added to column 1 and column 7. 270 µl of tryptone diluent solution was added to columns 2-6 and columns 8-12 of the Dilution MTP by a Hamilton robotic liquid handling station.
# BCT test & neutralization & dilution: Bacterial stock (30 µl) was then added to columns 1 of the ‘Screening plate’ and mixed by a Hamilton robotic liquid handling station. After a contact time of 45 seconds, 30 µl of the mixtures in column 1 were transferred into the corresponding wells of column 1 of the ‘Dilution plate’. After neutralizing for 5 minutes in the D/E neutralizing solution, 30 µl of the neutralized mixtures were transferred from column 1 to column 2 of the Dilution MTP and mixed, followed by transferring 30 µl of the mixtures from column 2 into column 3. This process was repeated serially diluting the bacteria suspensions across the plate to column 6. Bacterial stock (30 µl) was then added to columns 7 of the ‘Screening plate’ and mixed by a Hamilton robotic liquid handling station. After a contact time of 45 seconds, 30 µl of the mixtures in column 7 were transferred into the corresponding wells of column 7 of the ‘Dilution plate’. After neutralizing for 5 minutes in the D/E neutralizing solution, 30 µl of the mixtures were transferred from column 7 to column 8 of the Dilution MTP and mixed, followed by transferring further 30 µl mixtures from column 8 into column 9. This process was repeated serially diluting the bacteria suspensions across the plate to column 12.
# Plating: 30 µl volumes from each well in the Dilution MTP were transferred onto four Tryptone Soya Agar (TSA) plates. The TSA plates were allowed to stand for about two hours so that the 30 µl inocula spots could dry and the plates were then inverted and incubated overnight at 37° C. for 24 hours. After incubation, colonies were counted.
# Calculating log reduction: Select the dilutions with colony counts, and calculate the viable cell counts (CFU/mL) of mixture in ‘Screening plate’, and log reduction against the control MilliQ sample was calculated.
# E. coli ATCC 10536 = experiment: Bacterial contact time (BCT) test of perfume ingredients in 20% ethanol solution (EN-1276 based); assay type: cell-based, Escherichia coli; details: 20% EtOH, 45 s
# Experimental: Bacterial suspensions of E. coli ATCC 10536 were prepared for antimicrobial testing as follows. Stock cultures stored at -80° C. were sub-cultured onto Tryptic Soy Agar (TSA) plate, and incubated at 37° C. for 24 h to obtain single colonies. Single colonies of the primary cultures were streaked onto TSA plates and incubated at 37° C. for 24 h to prepare the secondary cultures. Single colonies of secondary cultures were inoculated into 50 mL of Tryptic Soy broth (TSB), incubated at 37° C. 180 rpm for 18 h. Aliquots (0.5 ml) of the 18 h culture were inoculated into 50 ml of fresh TSB, and incubated at 37° C. 180 rpm for 2- 3 hours. When the OD600 nm value of the broth reached 1-2, cells were harvested by centrifugation at 5,000 rpm for 10 min, and then resuspended in the same fresh broth media to achieve the target level of 1-5 × 10^8 colony forming unit (CFU)/mL. This suspension was used for further antimicrobial tests.
# Unless indicated otherwise, log reduction testing according to the present invention is determined in accordance with the following method.
# Bacterial contact time (BCT) test based on European standard EN-1276 was used to determine dose dependent bactericidal activity of perfume ingredients in 20% ethanol solutions.
# Perfume ingredients of various concentrations (doses) were prepared in 40% ethanol solutions. Eleven replicates of each sample were added into 96-well microtiter plates (120 µl per well) in column 1-11 of one row, with row B as the control sample of the ethanol solution. Then, 120 µl of cell suspension at a concentration of approximately 1-5 × 10^8 CFU/ML (as prepared above) were added to each well of the microtiter plate. A specified contact time (45 s) was allowed for target bacterial strains. At the end of the contact time, serial dilutions were prepared in 96 well plates with growth media: 3 times of 1 in 10 dilutions and followed by 17 times of 1 in 2 dilutions. Each plate was sealed and incubated at 37° C. under agitation (180 rpm). After incubation, turbidity of the wells (OD 600 nm) was recorded by Tecan microplate reader. Turbid cells were regarded as positive growth of viable cells. The total number of viable cells (log CFU/mL) for each sample was calculated. And the log reduction for each test composition at the final concentration (dose) was calculated against the control sample of the 20% ethanol solution.
# Table 20 show the bactericidal dose related effect (log reduction) and calculated effect fraction of the Mixture C and compositions against E. coli ATCC 10536. Stock of compositions were prepared in 100% ethanol, then diluted in MilliQ water to obtain 2 × final concentration in 40% ethanol. BCT tests were conducted on samples against E. coli for a contact time of 45 s.
# physchem = assay type: physicochemical
# Experimental: The partition coefficient (P) is defined as the ratio of the concentrations (C) to the equilibrium of a dissolved and highly diluted substance in a biphasic system consisting of two almost immiscible solvents.
# In the case of n-octanol and water:
# The partition coefficient P is the quotient of two concentrations, it is generally indicated in its logarithmic form, base 10 (LogP).
# The log P values of different perfume ingredients were measured using standard high performance liquid chromatography method, according to the reference (OECD, guideline No. 117, adopted on 13 Apr. 2004, Partition coefficient (n-octanol-water), High Performance Liquid Chromatography (HPLC) Method).
# [3] = 0.5% perfume ingredient, Base 1: SLES 1.875%, CAPB 0.625%, contact 45 s, read-out: Log reduction in Base 1 (Log CFU/mL)
# [4] = model base 1, table by functional group, read-out: Log reduction in Base 1 (Log CFU/mL)
# [5] = read-out: Log reduction in Base 1 (Log CFU/mL)
# [6] = n-octanol/water, HPLC method, read-out: Log P
# [7] = 0.5% perfume ingredient, Base 1: SLES 1.875%, CAPB 0.625%, contact 45 s
# [8] = 0.5% perfume ingredient, Base 2: SLES 2.25%, CAPB 0.75%, contact 45 s
# [9] = 0.5% perfume ingredient, CAPB 0.75%, contact 45 s
# [10] = model base 1, table by functional group
# [11] = 0.5% perfume ingredient, Base 2: SLES 2.25%, CAPB 0.75%, contact 45 s, read-out: Log reduction (Log CFU/mL) Base 2
Molecule,EACN [1],"log reduction at 0.5 % [2, 3]",chromatographic logP (physchem),chromatographic logP (physchem; [6]),"Log reduction (Log CFU/mL) Base 3 [2, 9]","Log reduction (Log CFU/mL) Base 4 [2, 9]",other results
Cc1ccc(C(C)C)c(O)c1 [2-isopropyl-5-methylphenol],-43.68,> 5.5,2.57,–,–,–,"log reduction at 0.5 % [2, 4]: > 5.5; Effect fraction (E. coli ATCC 10536; dose 0.025% w/v): 0.120; Log reduction (E. coli ATCC 10536; dose 0.025% w/v): 0.887; Effect fraction (E. coli ATCC 10536; dose 0.030% w/v): 0.300; Log reduction (E. coli ATCC 10536; dose 0.030% w/v): 2.140; Effect fraction (E. coli ATCC 10536; dose 0.035% w/v): 0.470; Log reduction (E. coli ATCC 10536; dose 0.035% w/v): 3.344; Effect fraction (E. coli ATCC 10536; dose 0.040% w/v): 0.690; Log reduction (E. coli ATCC 10536; dose 0.040% w/v): 4.987; Effect fraction (E. coli ATCC 10536; dose 0.045% w/v): 0.890; Log reduction (E. coli ATCC 10536; dose 0.045% w/v): 6.387"
c1ccc2[nH]ccc2c1 [indole],<-24.93,–,–,1.74,–,–,"log reduction at 0.5 % [2, 5]: 1.9"
"2 /3 //4-(5,5,6-trimethylbicyclo[2.2.1]hept-2-yl)-1-cyclohexanol(A/B/C) + 2-(1,7,7-trimethylbicyclo[2.2.1]hept-2-yl)-1-cyclohexanol (D)",-16.52,–,–,–,Insoluble,-0.2 Log CFU/mL,"Log reduction in Base 1 (Log CFU/mL) [2, 7]: 0.4 Log CFU/mL; Log reduction (Log CFU/mL) Base 2 [2, 8]: -1.0 Log CFU/mL; Log P (physchem): 5.23"
C/C(C=O)=C\c1ccccc1 [(2E)-2-methyl-3-phenyl-2-propenal],-12.17,–,2.56,–,–,–,"log reduction at 0.5 % [2, 4]: 3.7"
"C=C(C)[C@@H]1CC=C(CO)CC1 [(-)-(S)-1,8-P-menthadien-7-ol]",-30.83,–,–,–,1.4 Log CFU/mL,2.2 Log CFU/mL,"Log reduction in Base 1 (Log CFU/mL) [2, 7]: 4.2 ± 0.1 Log CFU/mL; Log reduction (Log CFU/mL) Base 2 [2, 8]: 0 Log CFU/mL; Log reduction in Base 1 (Log CFU/mL) [2, 10]: 4.2 Log CFU/mL; Log P (physchem): 2.68"
CCC/C=C/CO [(2E)-2-hexen-1-ol],-21.91,-0.2,1.73,–,–,–,–
C=CCc1ccc(O)c(OC)c1 [2-methoxy-4-(2-propen-1-yl)phenol],-31.24,0.2,–,2.14,–,–,–
Cc1ccc(C(C)C)cc1O [5-isopropyl-2-methylphenol],-43.89,–,–,2.52,–,–,"log reduction at 0.5 % [2, 5]: 5.3; Log reduction in Base 1 (Log CFU/mL) [2, 10]: 5.3 Log CFU/mL; Effect fraction (E. coli ATCC 10536; dose 0.030% w/v): 0.090; Log reduction (E. coli ATCC 10536; dose 0.030% w/v): 0.660; Effect fraction (E. coli ATCC 10536; dose 0.035% w/v): 0.250; Log reduction (E. coli ATCC 10536; dose 0.035% w/v): 1.812; Effect fraction (E. coli ATCC 10536; dose 0.040% w/v): 0.610; Log reduction (E. coli ATCC 10536; dose 0.040% w/v): 4.379; Effect fraction (E. coli ATCC 10536; dose 0.045% w/v): 0.830; Log reduction (E. coli ATCC 10536; dose 0.045% w/v): 5.960; Effect fraction (E. coli ATCC 10536; dose 0.050% w/v): 0.970; Log reduction (E. coli ATCC 10536; dose 0.050% w/v): 6.960"
"CCC(C)(O)CCCC(C)C (racemic) [(+-)-3,7-dimethyl-3-octanol]",-4.83,1.9 ± 1.6,–,3.78,0.3 Log CFU/mL,0.4 Log CFU/mL,"log reduction at 0.5 % [2, 11]: 0"
CC(C)(O)Cc1ccccc1 [2-methyl-1-phenyl-2-propanol],-17.89,-0.1,–,1.84,–,–,–
Cc1ccc(O)cc1 [4-methylphenol],<-21.95,0.1,1.52,–,–,–,–
OC/C=C/c1ccccc1 [(2E)-3-phenyl-2-propen-1-ol],< -28.19,0.1,1.79,–,–,–,–
CCCCCCC1CCC(=O)O1 (racemic) [(+-)-4-decanolide],-4.96,0.2 ± 0.3,–,3.02,0.6 Log CFU/mL,0.25 Log CFU/mL,"log reduction at 0.5 % [2, 11]: 0"
CC(CCO)CCc1ccccc1 (racemic) [(+-)-3-methyl-5-phenyl-1-pentanol],-37.05,5 ± 2.1,3,–,2.9 Log CFU/mL,2.8 Log CFU/mL,"log reduction at 0.5 % [2, 11]: 0; log reduction at 0.5 % [2, 4]: 4.3"
